# Where two headings read alike, the source gives them in different places.
# Assays:
# [1] = no reference given, cited from earlier work
# [2] = Degradation of LEU and L18FCs and conversion to LEU in human plasma; assay type: in vitro ADME
# [3] = no reference given, cited from earlier work; remark: listed apart in the source
# [4] = 1 mg intravenous administration; no reference given; cited from earlier work
molecule,measurement,setting,value
CCCCCCCC/C=C\CCCCCCCC(=O)O [Oleic acid],log P,"[1]; C18 fatty acids, Table 2",7.64
CCCCC/C=C\C/C=C\CCCCCCCC(=O)O [Linoleic acid],log P,"[1]; C18 fatty acids, Table 2",7.05
"CCNC(=O)[C@@H]1CCCN1C(=O)[C@H](CCCNC(=N)N)NC(=O)[C@H](CC(C)C)NC(=O)[C@@H](CC(C)C)NC(=O)[C@H](Cc1ccc(O)cc1)NC(=O)[C@H](CO)NC(=O)[C@H](Cc1c[nH]c2ccccc12)NC(=O)[C@H](Cc1c[nH]cn1)NC(=O)[C@@H]1CCC(=O)N1 [LEU, leuprolide]","metabolised at 840 h, 1 mg/mL",[2],~45.8%
same,Solubility in phosphate buffered solution (PBS),"[3]; PBS, introduction statement",approximately 10 mg/mL
CCCCCCCCCCCCCCCCCC(=O)O [Stearic acid],log P,"[1]; C18 fatty acids, Table 2",8.23
leuprolide acetate [LEU acetate],Solubility,[3]; in water,≥ 66.66 mg/mL (52.51 mM) in water
same,log P,"[1]; LEU acetate, Table 1",−2.7–1.07
same,Half life,[4],3 h

# From article PMC9124699 (International Journal of Nanomedicine, 2022)
